Measured values reported in US9492468B2, “Methods and compositions for treatment of acute heart failure” (PERICOR THERAPEUTICS, INC., priority 2008, dated 2016).

Columns and labels:
[1] = target: T1, A3 receptors (Homo sapiens, UniProt P0DMS8); experiment: Ligand status at adenosine A3 receptor; format: binding
T1 sequence (P0DMS8 1-318): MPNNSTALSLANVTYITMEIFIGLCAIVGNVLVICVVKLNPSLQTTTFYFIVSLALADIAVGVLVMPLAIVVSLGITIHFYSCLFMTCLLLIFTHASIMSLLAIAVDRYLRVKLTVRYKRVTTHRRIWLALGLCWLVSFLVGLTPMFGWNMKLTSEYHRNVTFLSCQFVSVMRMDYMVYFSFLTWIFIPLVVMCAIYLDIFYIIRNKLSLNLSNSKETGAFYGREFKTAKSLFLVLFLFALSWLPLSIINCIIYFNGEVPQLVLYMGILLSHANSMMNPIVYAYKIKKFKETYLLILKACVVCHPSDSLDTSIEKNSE

[2] = test system: NT-ProBNP; experiment: Plasma NT-proBNP, 6 hours infusion study; format: in vivo, dog; details: HF dogs n=6; for Plasma NT-ProBNP: iv 10 μg/kg/min constant infusion
Experimental: Six heart failure dogs described in Example 1 were used. Studies using active drug and placebo were performed in each dog in random order a minimum of one week apart. After baseline hemodynamic, angiographic and echocardiographic measurements, GP-531 tartrate or placebo was administered as a continuous constant intravenous infusion for 6 hours. The dose of GP-531 tartrate was 10 μg/kg/min. Complete hemodynamic, angiographic and echocardiographic measurements were made during baseline, and at 1, 2, 3, 4, 5 and 6 hours after initiating drug infusion. In addition, myocardial oxygen consumption (MVO2) was measured at baseline and 4 and 6 hours after initiating drug or saline infusion. LV pressure-volume relationships (P-V Loops) were also measured at baseline and at 6 hours after initiating drug or saline infusion to assess load independent contractility and relaxation. Venous blood samples were obtained at baseline and hourly thereafter. Blood samples (at least […]) were centrifuged at 3000 rpm for 10 minutes and plasma withdrawn and placed in cryostorage tubes and stored upright at −20° C. until needed. Venous blood samples were used to evaluate plasma levels of troponin-I and plasma levels of n-terminal pro-brain natriuretic peptide (NT-proBNP).
Plasma biomarkers were measured in all dogs at all study time points. Troponin I (TnI) was determined in plasma based on the principle of the double antibody sandwich enzyme-linked immunosorbent assay (ELISA) (Hirano, T., et al, Immunol Today 1990, 11:443-449) and NT-pro-BNP based on competitive ELISA (Bonow, R. O. Circulation 1996, 93:1946-1950). Both biomarkers were assayed using commercially available assay kits. Kits for NT-proBNP and TnI were purchased from ALPCO Diagnostics, Salem, N.H. Using standard curves and software, the concentration of each biomarker was expressed as ng/ml for TnI and fmol/ml for NT-proBNP.

[3] = target: T2, NBTI-sensitive adenosine transporter (Homo sapiens, UniProt Q99808); experiment: Ligand status at adenosine transporter; format: binding
T2 sequence (Q99808 1-456): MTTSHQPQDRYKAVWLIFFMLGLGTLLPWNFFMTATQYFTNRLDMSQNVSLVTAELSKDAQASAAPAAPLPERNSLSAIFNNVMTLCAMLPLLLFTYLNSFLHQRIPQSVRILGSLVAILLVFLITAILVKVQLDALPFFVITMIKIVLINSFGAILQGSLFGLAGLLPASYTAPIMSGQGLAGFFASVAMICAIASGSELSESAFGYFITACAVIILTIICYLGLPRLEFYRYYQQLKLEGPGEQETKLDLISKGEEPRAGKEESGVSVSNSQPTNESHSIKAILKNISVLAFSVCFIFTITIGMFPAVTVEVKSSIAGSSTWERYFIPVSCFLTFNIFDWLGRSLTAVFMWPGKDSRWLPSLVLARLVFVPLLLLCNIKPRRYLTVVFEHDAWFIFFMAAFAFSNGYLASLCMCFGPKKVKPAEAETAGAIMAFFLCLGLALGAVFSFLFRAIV

[4] = target: T3, A1 receptors (Homo sapiens, UniProt P30542); experiment: Ligand status at adenosine A1 receptor; format: binding
T3 sequence (P30542 1-326): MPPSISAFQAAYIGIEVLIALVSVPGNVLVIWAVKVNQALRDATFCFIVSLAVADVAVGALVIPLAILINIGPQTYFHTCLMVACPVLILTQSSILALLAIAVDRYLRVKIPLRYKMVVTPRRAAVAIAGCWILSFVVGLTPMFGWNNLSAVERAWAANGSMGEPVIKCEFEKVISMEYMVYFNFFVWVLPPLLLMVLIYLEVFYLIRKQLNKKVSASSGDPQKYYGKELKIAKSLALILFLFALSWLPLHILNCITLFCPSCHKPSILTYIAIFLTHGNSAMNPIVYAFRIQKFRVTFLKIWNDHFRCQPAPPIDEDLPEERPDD

[5] = previous studies; cited from earlier work

NC(=O)c1ncn(C2OC(CNCc3ccccc3)C(O)C2O)c1N [GP-531, 5-amino-1-β-D-(5-benzylamino-5-deoxy-1-β-D-ribofuranosyl)imidazole-4 carboxamide]
Ligand for A3 receptors [1]: has not been shown to be a ligand | Plasma NT-ProBNP ([2]; 1 h): 140 ± 13 fmol/mL | Plasma NT-ProBNP ([2]; 2 h): 131 ± 11 fmol/mL | Plasma NT-ProBNP ([2]; 3 h): 127 ± 12 fmol/mL | Plasma NT-ProBNP ([2]; 4 h): 134 ± 11 fmol/mL | Plasma NT-ProBNP ([2]; 5 h): 130 ± 10 fmol/mL | Plasma NT-ProBNP ([2]; 6 h): 122 ± 10 fmol/mL | Effect on plasma NT-proBNP ([2]; iv 10 μg/kg/min for 6 h): significantly reduced | Ligand for NBTI-sensitive adenosine transporter [3]: has not been shown to be a ligand | Ligand for A1 receptors [4]: has not been shown to be a ligand | Metabolism [5]: not metabolized | Route of clearance [5]: cleared almost entirely intact in urine
